{
  "source": "paper PMC6973020",
  "about": "“Quinoline‐Conjugated Ruthenacarboranes: Toward Hybrid Drugs with a Dual Mode of Action” (Chemmedchem, 2019)",
  "key": {"[1]": {"test_system": "microtubule‐associated protein light chain 3B (LC3B)", "experiment": "Western blot analysis of LC3B, LN229", "assay_type": "cell-based, human", "settings": "LN229, IC50 dose", "description": "mouse microglial cell line BV‐2 was a kind gift from Dr. Irena Lavrnja, Institute for Biological Research “Siniša Stanković” (University of Belgrade). Cells were routinely cultivated in HEPES‐buffered RPMI‐ […]\nFCS, 2 mM L‐glutamine, 0.01% sodium pyruvate and antibiotics, at 37 °C in a humidified atmosphere with 5% CO2. Peritoneal resident macrophages (Mph) were collected from C57BL/6 mice, obtained from the animal facility at the Institute for Biological Research “Siniša Stanković” (University of Belgrade), via peritoneal lavage with ice‐cold PBS. Cells were counted and seeded in 96‐well plates and incubated overnight, as described above. Before treatment, non‐adherent cells were removed.\nIsolation of cells from animals were performed in accordance to local guidelines and approved by the local Institutional Animal Care and Use Committee (IACUC).\nStaining Protocols for Flow Cytometric Analysis. For AnnV/PI, AO and ApoStat staining, cells were treated with an IC50 dose of 3 or 4 for 72 h, then detached with trypsin and washed with PBS. […] Finally, cells were washed in PBS, resuspended in PBS (or AnnV‐binding buffer for AnnV/PI), and analysed. […] Cells were then washed, trypsinised, dissolved in PBS and analysed by CyFlow® Space Partec using the PartecFloMax® software (Partec GmbH, Münster, Germany).\nStaining Protocols for Fluorescence Microscopy. […]"}, "[2]": {"test_system": "A375, B16 and MCF‐7 cell lines", "experiment": "CV cell viability assay, summary for A375, B16 and MCF‐7", "assay_type": "cell-based", "settings": "range over the three cell lines, 72 h", "excerpt": "Thus, care must be taken when comparing their biological activities with those of our previous studies, even with the same cell line, because the covalent vs. non‐covalent combination of drugs might imply different mechanisms of action in the cell.44 Here, we studied the in vitro activity of ruthenacarborane 3, i. e. free acid, and its 8‐hydroxyquinolyl (4) and 4‐{(7‐chloroquinolin‐4‐yl)oxy}butanol‐1‐yl (5) esters, against a panel of cancer cell lines (B16 mouse melanoma, A375 human skin melanoma, MCF‐7 human breast adenocarcinoma, LN229 human glioblastoma, U251 human glioma). Human fibroblast cell line MRC‐5, murine microglial cell line BV‐2 as well as peritoneal exudate cells (Mph), were chosen as models for non‐malignant cells. […] Cells were exposed to 3–5 for 72 h, after which cell viability was determined via 3‐(4,5‐dimethylthiazol‐2‐yl)‐2,5‐diphenyltetrazolium bromide (MTT) and crystal violet (CV) assays, in parallel (Table 2). […]\nColorimetric assays for cellular viability. […] The absorbance was measured with an automated microplate reader at λmax 540 nm, with the reference λmax 670 nm. Untreated cells or cells treated only with BSA (control) were also measured, as reference for BSA‐free and BSA‐containing drug formulations, respectively. […] Cell viability is expressed as percentage (%) relative to control (untreated cultures).58 Experiments were run in three independent replicates. […]"}},
  "data": [
    {"substance": "closo ‐[3‐(η^6‐p‐Cymene)‐1‐(quinolin‐8‐yl‐acetate)‐3,1,2‐RuC2B9H10] [Compound 4]", "values": [
      {"measurement": "expression of LC3B (western blot)", "setting": "[1]", "result": "significantly diminished"}
    ]},
    {"substance": "closo‐ [Compound 3, closo‐ [3‐(η^6‐p‐Cymene)‐1‐(CH2COOH)‐3,1,2‐RuC2B9H10]]", "values": [
      {"measurement": "IC50", "setting": "[2]", "result": "18 to 23", "unit": "µM"}
    ]}
  ]
}
